Test system: S. aureus ATCC 6538
Experiment: Modified AATCC Method 100, antibacterial activity of nonwoven BMF webs (viable cell count after 24 hrs)
Type: cell-based
Details: statement in words on the additive in electret webs
From the text: Besides the charge-enhancing properties, the charge-enhancing additives also provide anti-microbial properties. Antimicrobials are agents that kill microorganisms or stops their growth. Antimicrobials work at a cellular level to continually disrupt and prevent the growth of microorganisms. By creating an inhospitable environment for microorganisms like bacteria, mold and mildew, antimicrobials protect everyday products like countertops, toys, surface coatings, textiles and hospital equipment. The antimicrobial activity of the current charge-enhancing additives in electret webs can be measured in a variety of different ways. One particularly suitable measurement technique is the standard test method of “Modified AATCC Method 100—Assessment of Antibacterial Finishes on Textile Materials” was used for the nonwoven webs performance test. This method is used to evaluate the antibacterial activity of textile products treated with antibacterial finish, which is suitable for nonwoven hydrophobic fabric webs. Details of the test method are provided in the Examples section, below. The standard test method of “Modified AATCC Method 100—Assessment of Antibacterial Finishes on Textile Materials” was used for the nonwoven webs performance test. […] Viable cell count of S. Aureus ATCC 6538 on BMF web after 24 hrs were measured.

With `c1ccc(-c2nc3ccccc3[nH]2)cc1` [CA-4, 2-Phenylbenzimidazole] the “combination of charge-enhancing and anti-microbial properties” value was “do not have this combination of properties”.
